{
  "source": "patent US20080003281A1",
  "about": "“Modified Release Tablet Formulations for Proton Pump Inhibitors” (ASTRAZENECA AB, priority 2004, published 2008)",
  "origin": "cited, not measured here",
  "test_system": "gastric acid",
  "conditions": "40 mg esomeprazole dose split into 20 mg bid",
  "data": [
    {"molecule": "COc1ccc2nc([S@@+]([O-])Cc3ncc(C)c(OC)c3C)[nH]c2c1", "note": "[esomeprazole, (−)-enantiomer of omeprazole]", "values": [
      {"measurement": "nocturnal gastric acid suppression", "result": "significantly improved"}
    ]}
  ]
}
